As a reminder, the melting point is the temperature of the solid-liquid transition.

Turning to `O=C(CBr)N[C@H](CO)Cc1ccccc1`, the melting point was in the range of 83 to 85 °C.
`N#CC(NC(=O)C(F)(F)C(F)(F)C(F)(F)F)c1ccc(Cl)cc1` (stereo not drawn): the melting point lay within 93 to 95 °C.
`CC(C)(C)CC(C)(C)c1ccc(OCCOC(=O)c2ccc(Nc3nc(Cl)nc(Cl)n3)cc2)cc1`: the melting point is 249 to 251 °C.
`C=C(C)COc1ccc(C(=O)C=Cc2cccnc2)c(O)c1` gave a melting point of 164 to 166 °C.
With `CCCNC(=O)c1cnc2ccccc2c1O`, the melting point was 210 °C.
In turn, `Cc1c(Cl)cccc1-n1c(=O)[nH]c2cccnc21` had a melting point of 224 to 225 °C.
In the case of `CNC(=O)c1cccc(CNc2ccccc2C(=O)Nc2cccc(C(F)(F)F)c2)c1`, the melting point fell in the range of 166 to 167 °C.
As to `NC(=O)c1ccn2c1CSC2c1cccnc1` (single isomer, unassigned; (+)), the melting point is 210 °C.
Turning to `Cc1cc(N2CCN(Cc3ccc(F)cc3)C2=O)sc1C(=O)NCc1cccs1`, the melting point lay in the range of 128 to 131 °C.
Consider `CCCc1ccnc2c(=O)[nH]c(-c3cc(S(=O)(=O)NC)ccc3OCC)nc12`, for which the melting point is 216 to 219 °C.
On to `O=C(c1ccc(Br)cc1)C1CCN(CCc2c[nH]c3ccccc23)CC1`, for which the melting point is 178 to 180 °C.
`O=C1CCCc2nc3ccccc3c(NCc3ccccc3F)c21` gave a melting point of 164 °C.
`CCNC(=O)C1OC(n2cnc3c(NNC(=O)c4ccccc4)ncnc32)C2OC(C)(C)OC12` (stereo not drawn) gave a melting point of 116 to 117 °C.
Consider `C#CCN(Cc1ccc2nc(C)[nH]c(=O)c2c1)c1ccc(C(=O)NC(C)(C#N)Cc2ccccc2)cc1` (stereo not drawn), for which the melting point was in the range of 208 to 209 °C.
Regarding `COc1cc(Nc2c(C#N)cnc3cc(F)c(OCCN4CCOCC4)cc23)c(Cl)cc1Cl`, the melting point lay in the range of 166 to 168 °C.
`CC(C)(C)OC(=O)C[C@H](O)CC#N` yielded a melting point of 63 to 64 °C.
In turn, `Cn1ccnc1S(=O)(=O)c1ccccc1Cl` showed a melting point of 156 to 159 °C.
Then `COC(=O)c1cc(N)cc(C(F)(F)F)n1`, with 114 °C.
`O=C(OCc1ccccc1)C1N2C(=O)C(NC(c3ccccc3)(c3ccccc3)c3ccccc3)C2SC12CCN(c1ccccc1)CC2` (stereo not drawn) had a melting point of 200 to 201 °C.
Under `CS(=O)(=O)c1ccc(C[C@H](CO)NC(=O)OCc2ccccc2)cc1` stands 110 to 112 °C.
The compound `CCCc1ccc(OC)c2c(C)c(C(=O)OCC)oc12` yielded a melting point of 43 to 46 °C.
Then `Cc1oc(-c2ccc3ccccc3c2)nc1COc1ccc(COc2ncccc2CO)cc1`, with 161 to 162 °C.
`Cc1cc(Oc2c(F)cc(C(F)(F)F)cc2Cl)nn1C(=O)NCCBr` showed a melting point of 85 to 86 °C.
Then `CC(C)N(C(=O)c1cc2ccccc2c(-c2ccccc2Cl)n1)C(C)C`, with 161 °C; and `COc1ccc(C(=O)Oc2ccc(C(=O)O)cc2CO)cc1C12CC3CC(CC(C3)C1)C2`, with 214 to 216 °C; and `CNC(=S)N1CCSC1c1ccccc1OCCN1CCN(c2ccccc2)CC1` (single isomer, unassigned; (-)), with 144 to 146 °C.
For the compound `COc1ccc(-n2cnc3c(O)nc4ccccc4c32)cc1`, the melting point is over 300 °C.
Take `Cc1c(Cl)c(N)cc(Cl)c1Oc1ccc(Cl)cc1Cl`: the melting point was in the range of 96 to 97 °C.
Regarding `NC(=O)CNc1ncccc1NC(=O)c1ccccc1`, the melting point is 194 to 195 °C.
For the compound `Cn1cc(C#N)c(-c2ccc([N+](=O)[O-])o2)n1`, the melting point is 176 to 178 °C.
As to `COc1cccc2c1C(=O)C(c1c(Cl)cccc1Cl)C2=O` (stereo not drawn), the melting point lay in the range of 163 to 165 °C.
On to `O=C(O)CC(Cc1ccccc1)NC(=O)C1Cc2ccccc2N1S(=O)(=O)c1ccc(-c2ccc(F)cc2)cc1` (stereo not drawn), for which the melting point was in the range of 87 to 90 °C.
For `O=[N+]([O-])c1ccc2c(c1)Sc1cc(OCCF)ccc1N2`, the melting point was in the range of 189 to 191 °C.
`O=S1(=O)N=C2CCCN2c2ccc(S(=O)(=O)NC3CCCCC3)cc21` came in with a melting point of 151 to 153 °C.
In turn, `c1cc(Nc2nccc(-c3ccco3)n2)cc(-n2ccnc2)c1` registered a melting point of 175 to 178 °C.
As to `CCCCCC(=O)OCc1nccc2[nH]c(=O)ccc12`, the melting point was 158 to 159 °C.
As for `C[C@@H]1Cc2ccsc2[C@H](C)N1CCNC(=O)c1ccc(C#N)cc1` (relative stereo), the melting point lay within 122 to 124 °C.
In turn, `COC(=O)c1cn2c(n1)COc1ccc(Cl)cc1-2` displayed a melting point of 239 to 240 °C.
In turn, `CC(=NO)c1ccc(C2=CCCCC2)cc1` displayed a melting point of 154 to 156 °C.
Under `Cc1c(C)c(N2CCN(c3ccc(F)cc3)CC2)c(C)c2c1OC(C)(C)C2=O` stands 176 to 179 °C; under `CC1Oc2c(C(=O)[NH+]([O-])C3CN4CCC3CC4)cc(Cl)cc2N(C)C1=O` (stereo not drawn), 188 to 190 °C; under `CCOC(=O)/C=C(/c1ccc(OC)cc1)c1cc(Cl)cc(Cl)c1`, 116 to 118 °C.
`COC(=O)Cc1ccc(OCC(C)NCC(O)c2cccc(Cl)c2)c(Cl)c1` (stereo not drawn) yielded a melting point of 83 to 103 °C.
Consider `CC(=O)c1cc(C(=O)c2ccc3ccccc3c2)c[nH]1`, for which the melting point is 172 to 174 °C.
Under `Cc1cc2c(=O)n(CCN3CCC(Nc4nc5ccccc5n4Cc4ccc(F)cc4)CC3)c(=S)[nH]c2s1` stands 236 °C.
As to `CCCCCCCCCCCCOC(=O)N[C@@H](CCCCN)C(=O)O`, the melting point is over 260 °C.
Compound `CC1(C)N=C(Cl)c2cc(C#N)ccc2O1` displayed a melting point of 124 to 126 °C.
In turn, `COc1ccc(C(O)c2nn(C)c3c2CCc2c(C(N)=O)sc(Oc4ccc5c(c4)OCO5)c2-3)cc1` (stereo not drawn) returned a melting point of 187 to 188 °C.
The compound `CC(C)(C)OC(=O)C1CCCNN1C(=O)C(CCC(=O)O)N1C(=O)c2ccccc2C1=O` (stereo not drawn) had a melting point of 132 to 134 °C.
Turning to `Cc1nc(-c2ccc([N+](=O)[O-])cc2)c[nH]1`, the melting point was 216 to 219 °C.
`CC1(C)CCC(C)(C)c2cc(C=O)c(C#C[Si](C)(C)C)cc21`: the melting point fell in the range of 78.4 to 82 °C.
Compound `CCCC(CCC)CCCC1COCCN1CCCCCO` (stereo not drawn) showed a melting point of 59 to 60 °C.
The compound `COc1cc2c(cc1OC)=C(CCCl)OCC(C)(C)C=2` registered a melting point of 66 to 67 °C.
Turning to `CC(C)c1cccc(C(C)C)c1N1C(=O)c2cccc3c(Oc4ccc(C(C)(C)CC(C)(C)C)cc4)ccc(c23)C1=O`, the melting point was 217 °C.
As for `O=c1ccc(-c2nc3ccccc3s2)cn1Cc1ccc(Cl)c(F)c1`, the melting point stood at 164 °C.
Under `Cn1cnnc1C(c1ccc(Cl)cc1)c1ccc2c(c1)c(-c1cccc(Cl)c1)nc1nnnn12` (stereo not drawn) stands 217 °C.
Take `COc1ccsc1NC(=O)Nc1cc([N+](=O)[O-])ccc1O`: the melting point worked out at 173 °C.
Turning to `O=C(c1ccc2nonc2c1)N1CC2CC1C(Cl)C2Cl` (stereo not drawn), the melting point is 156 to 157 °C.
Then `COc1cc(COc2nn(-c3ccccc3)cc2C=O)ccc1OCc1csc(N2CCOCC2)n1`, with 128 to 129 °C.
`CC(=CCO)c1ccc(C2CCCCCCC2)cc1` registered a melting point of 40 to 44 °C.
In turn, `COC(=O)C1=C(NC(=O)Nc2ccccc2)CSC1` showed a melting point of 182 to 184 °C.
Regarding `O=C1OCCC=C1c1ccccc1`, the melting point fell in the range of 100 to 101 °C.
Under `COc1cccc(C=CC(=O)Cl)c1` stands 43 to 45 °C; under `Nc1cc(-c2c(-c3ccc(F)cc3)ncn2CCCN2CCOCC2)ccn1`, 186 to 187 °C.
In turn, `CC1CCNC(=C[N+](=O)[O-])N1c1ccc(Cl)nc1` (stereo not drawn) displayed a melting point of 184 °C.
Take `COc1ccc(C2=C(N)c3cc(OC)ccc3C2=O)cc1`: the melting point was 213 °C.
In turn, `OC(COc1cccc2[nH]nnc12)CN1CCC(COc2ccccc2)CC1` (stereo not drawn) returned a melting point of 187 to 189 °C.
In the case of `CCOC(=O)CCCCOc1ccc(-c2nc(N3CCOCC3)c3sc(CN4CCN(S(C)(=O)=O)CC4)cc3n2)cc1`, the melting point lay within 110 to 114 °C.
`Cn1cc2c(OCC3COC(Cn4ccnc4)(c4ccc(Cl)cc4Cl)O3)cc(-c3ccccc3)nc2n1` (stereo not drawn) came in with a melting point of 227 to 229 °C.
Compound `[N-]=[N+]=Nc1nc2c(N)ncnc2n1C1CC(O)C(CO)O1` (stereo not drawn) displayed a melting point of 177 to 179 °C.
Take `COc1cncnc1N1CCN(CCCc2c[nH]c3ccc(-c4c(NC(C)C)c(=O)c4=O)cc23)CC1`: the melting point fell in the range of 104 to 106 °C.
Regarding `CC(C)Cn1c(CNC(=O)C2CC2)nc2c(N)nc3ccccc3c21`, the melting point is 215 to 216 °C.
Turning to `COc1cc(OC)nc(C(=O)c2cccnc2C(=O)O)n1`, the melting point lay within 71 to 73 °C.
On to `Cc1cc(C)cc(-c2cc3cnc(N)nc3nc2NC(=O)NC(C)(C)C)c1`, for which the melting point is 180 to 182 °C.
`CCCCCCCCCCCCCCCCOc1ccc(OCC(=O)O)cc1`: the melting point lay within 125 to 127 °C.
The compound `O=C(O)CCCCCc1oc(-n2cnc3ccccc32)nc1-c1ccc(Cl)cc1` displayed a melting point of 158 to 159 °C.
On to `CN(CCCCCCNC(=O)NCCSCc1csc(NC(=N)N)n1)CCN(Cc1ccc(F)cc1)c1ccccn1`, for which the melting point is 95 °C.
On to `COc1cccc(NC(=O)c2ccccc2N)c1`, for which the melting point lay within 75 to 77 °C.
In the case of `OC[C@@H](O)CCOc1ccc(-c2nc3c4ccccc4c4ccccc4c3[nH]2)cc1`, the melting point was in the range of 263 to 265 °C.
As for `CN1CCC(NC(=O)c2cccc3oc(-c4ccccc4)nc23)CC1`, the melting point lay in the range of 126 to 128 °C.
Consider `CCCCCCSCCSc1nc(N)n[nH]1`, for which the melting point is 76.5 to 78 °C.
Turning to `N#CC(N)=C(C#N)NCc1ccc(Cl)c(Cl)c1`, the melting point was in the range of 158 to 160 °C.
`COc1ccc(C(=O)C(=O)c2ccccn2)cc1` gave a melting point of 97 to 98 °C.
Under `CN1C(=O)CC[C@]2(C)c3ccc(Sc4nc5c(F)cccc5s4)cc3CC[C@@H]12` stands 140 to 145 °C; under `Cn1c(C(F)(F)F)cc(=O)n(-c2cc(Oc3ccccc3OCC(=O)OC(C)(C)C)c(Cl)cc2F)c1=O`, 55.6 °C.
In turn, `CC(=O)CC(=S)N1N=C(c2ccc([N+](=O)[O-])cc2)c2cc3c(cc2CC1C)OCO3` (stereo not drawn) yielded a melting point of 178 to 185 °C.
`Cc1ccc(OCc2ccccc2)c(C(CCN2CC3CC3(C)C2)c2ccccc2)c1` (stereo not drawn) showed a melting point of 74.9 to 76 °C.
`O=c1[nH]cncc1Cc1cccnc1` registered a melting point of 145 to 148 °C.

The record behind these values is a melting point compilation (Tetko et al.; mined from patent text by program, amines drawn as free bases though some values may be those of a salt).
